Measurements as given in ChEMBL document CHEMBL1126039, “Synthesis and antiviral activity of 1-cyclobutyl-5-(2-bromovinyl)uracil nucleoside analogues and related compounds” (J Med Chem, 1992).

Legend:
WI-38 [1] = assay: Anti viral activity against HSV-1 in WI-38 cell monolayers.; type: functional; conditions: Homo sapiens, read-out: ID50 (the source's name)
WI-38 [2] = assay: Anti viral activity against VZV(Ellen strain) in WI-38 cell monolayers.; type: functional; conditions: Homo sapiens, read-out: ID50 (the source's name)
WI-38 [3] = assay: Anti viral activity against HCMV(AD169) in WI-38 cell monolayers; type: functional; conditions: Homo sapiens, read-out: ID50 (the source's name)
WI-38 [4] = assay: Anti viral activity against HSV-1(Schooler) in WI-38 cell monolayers; type: functional; conditions: Homo sapiens, read-out: ID50 (the source's name)
WI-38 [5] = assay: Anti viral activity against HSV-2(186) in WI-38 cell monolayers; type: functional; conditions: Homo sapiens, read-out: ID50 (the source's name)
WI-38 [6] = assay: Anti viral activity against VZV(9021 strain) in WI-38 cell monolayers.; type: functional; conditions: Homo sapiens, read-out: ID50 (the source's name)
WI-38 [7] = assay: Anti viral activity against VZV(Ito strain) in WI-38 cell monolayers.; type: functional; conditions: Homo sapiens, read-out: ID50 (the source's name)
WI-38 [8] = assay: Anti viral activity against VZV (Kanno-Kohmura(TK-) strain) in WI-38 cell monolayers.; type: functional; conditions: Homo sapiens, read-out: ID50 (the source's name)
WI-38 [9] = assay: Growth inhibitory activity against WI-38 cells; type: functional; conditions: Homo sapiens, read-out: ID50 (the source's name)
[10] = Therapeutic index of compound maesured as ratio of ID50 for WI-38 cell growth inhibition / ID50 anti-VZV (strain Ellen); type: cell-based; conditions: human, WI-38 cells; read-out: Therapeutic index
[11] = biological target: T1, Thymidine kinase, cytosolic (Homo sapiens) (UniProt P04183); conditions: Human alphaherpesvirus 3
T1 sequence (whole entry): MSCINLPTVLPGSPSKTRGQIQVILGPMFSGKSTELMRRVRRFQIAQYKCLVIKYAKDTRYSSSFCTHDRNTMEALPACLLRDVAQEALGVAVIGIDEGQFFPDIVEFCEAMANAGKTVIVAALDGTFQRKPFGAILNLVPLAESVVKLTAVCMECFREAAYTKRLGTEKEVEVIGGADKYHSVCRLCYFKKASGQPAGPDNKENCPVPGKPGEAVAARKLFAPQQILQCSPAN

WI-38 [12] = assay: Anti viral activity against VZV(40a2 (TK-) strain) in WI-38 cell monolayers.; type: functional; conditions: Homo sapiens, read-out: ID50 (the source's name)
WI-38 [13] = assay: Anti viral activity against VZV(Oka strain) in WI-38 cell monolayers.; type: functional; conditions: Homo sapiens, read-out: ID50 (the source's name)
WI-38 [14] = assay: Anti viral activity against VZV(pplla strain) in WI-38 cell monolayers.; type: functional; conditions: Homo sapiens, read-out: ID50 (the source's name)
[15] = biological target: T1, Thymidine kinase, cytosolic (Homo sapiens); conditions: Human alphaherpesvirus 3; remark: listed apart in the source
WI-38 [16] = assay: Anti viral activity against HSV-2 in WI-38 cell monolayers.; type: functional; conditions: Homo sapiens, read-out: ID50 (the source's name)
WI-38 [17] = assay: Anti viral activity against VZV in WI-38 cell monolayers.; type: functional; conditions: Homo sapiens, read-out: ID50 (the source's name)
WI-38 [18] = assay: Anti viral activity against HCMV in WI-38 cell monolayers.; type: functional; conditions: Homo sapiens, read-out: ID50 (the source's name)

SMILES: O=c1[nH]c(=O)n([C@@H]2C[C@H](CO)C2CO)cc1I (stereo partly specified)
- IC50 (WI-38 [1]): 14000 nM
- IC50 (WI-38 [2]): 28000 nM

SMILES: O=c1[nH]c(=O)n([C@@H]2C[C@H](CO)C2CO)cc1/C=C/Cl (stereo partly specified)
- IC50 (WI-38 [3]): 350000 nM
- IC50 (WI-38 [4]): 3500 nM
- IC50 (WI-38 [5]): > 280000 nM
- IC50 (WI-38 [6]): 1100 nM
- IC50 (WI-38 [2]): 400 nM
- IC50 (WI-38 [7]): 50 nM
- IC50 (WI-38 [8]): > 220000 nM
- IC50 (WI-38 [9]): > 400000 nM
- selectivity ratio [10]: > 2
- Kinase activity (pM min-1*ml-1) [11]: 333

SMILES: O=c1[nH]c(=O)n(C2CC(CO)C2CO)cc1/C=C/Br (racemic)
- IC50 (WI-38 [3]): > 300000 nM
- IC50 (WI-38 [4]): > 6000 nM
- IC50 (WI-38 [5]): > 300000 nM
- IC50 (WI-38 [12]): > 300000 nM
- IC50 (WI-38 [6]): 600 nM
- IC50 (WI-38 [2]): 150 nM
- IC50 (WI-38 [7]): 150 nM
- IC50 (WI-38 [8]): > 300000 nM
- IC50 (WI-38 [13]): 600 nM
- IC50 (WI-38 [14]): 200 nM
- IC50 (WI-38 [9]): > 750000 nM
- selectivity ratio [10]: > 2.5
- Kinase activity (pM min-1*ml-1) [11]: 1280

SMILES: O=c1[nH]c(=O)n([C@@H]2O[C@H](CO)[C@@H](O)[C@@H]2O)cc1/C=C/Br [SORIVUDINE]
- IC50 (WI-38 [3]): > 290000 nM
- IC50 (WI-38 [4]): 140 nM
- IC50 (WI-38 [5]): 120000 nM
- IC50 (WI-38 [6]): 3 nM
- IC50 (WI-38 [2]): 3 nM
- IC50 (WI-38 [7]): 7 nM
- IC50 (WI-38 [8]): > 72000 nM
- IC50 (WI-38 [13]): 3 nM
- IC50 (WI-38 [14]): 3 nM
- IC50 (WI-38 [9]): > 75000 nM
- selectivity ratio [10]: > 7.5
- Kinase activity (pM min-1*ml-1) [11]: 140
- Kinase activity (pM min-1*ml-1) [15]: 95

SMILES: O=c1[nH]c(=O)n([C@@H]2C[C@H](CO)C2CO)cc1/C=C/I (stereo partly specified)
- IC50 (WI-38 [3]): 260000 nM
- IC50 (WI-38 [4]): 13000 nM
- IC50 (WI-38 [5]): > 260000 nM
- IC50 (WI-38 [6]): 130 nM
- IC50 (WI-38 [2]): 50 nM
- IC50 (WI-38 [7]): 100 nM
- IC50 (WI-38 [8]): > 260000 nM
- IC50 (WI-38 [14]): 260 nM
- IC50 (WI-38 [9]): > 800000 nM
- selectivity ratio [10]: > 2.7
- Kinase activity (pM min-1*ml-1) [11]: 736

SMILES: Cc1cn([C@H]2C[C@H](O)[C@@H](CO)O2)c(=O)[nH]c1=O
- Kinase activity (pM min-1*ml-1) [11]: 585
- Kinase activity (pM min-1*ml-1) [15]: 174

SMILES: Nc1nc2c(ncn2COCCO)c(=O)[nH]1 [ACYCLOVIR]
- IC50 (WI-38 [3]): 40000 nM
- IC50 (WI-38 [4]): 200 nM
- IC50 (WI-38 [5]): 800 nM
- IC50 (WI-38 [9]): > 750000 nM
- Kinase activity (pM min-1*ml-1) [11]: 13

SMILES: O=c1[nH]c(=O)n([C@@H]2C[C@H](CO)C2O)cc1I (stereo partly specified)
- IC50 (WI-38 [1]): > 300000 nM
- IC50 (WI-38 [16]): > 300000 nM
- IC50 (WI-38 [17]): > 300000 nM
- IC50 (WI-38 [18]): > 300000 nM

SMILES: O=c1[nH]c(=O)n([C@@H]2C[C@H](CO)C2CO)cc1/C=C/Br (stereo partly specified)
- IC50 (WI-38 [3]): > 300000 nM
- IC50 (WI-38 [4]): 3000 nM
- IC50 (WI-38 [5]): > 300000 nM
- IC50 (WI-38 [6]): 150 nM
- IC50 (WI-38 [2]): 200 nM
- IC50 (WI-38 [7]): 15 nM
- IC50 (WI-38 [8]): 150000 nM
- IC50 (WI-38 [14]): 200 nM
- IC50 (WI-38 [9]): > 750000 nM
- selectivity ratio [10]: > 1.3
- Kinase activity (pM min-1*ml-1) [11]: 63
